Source: patent US10710986B2, “PD-1/PD-L1 inhibitors” (Gilead Sciences, Inc., priority 2018, dated 2020)

Target: PD-1/PD-L1 (Homo sapiens (Human), UniProt Q9NZQ7)
Experiment: PD-1/PD-L1 biochemical protein-protein interaction assay (ALPHA)
Settings: 0.3 nM His tagged PD-L1, 2.5 nM biotinylated Fc-PD-1, 60 minutes at 25° C., read-out: IC50 PD-L1-PD1

Chain of PD-1/PD-L1 (Q9NZQ7 19-238): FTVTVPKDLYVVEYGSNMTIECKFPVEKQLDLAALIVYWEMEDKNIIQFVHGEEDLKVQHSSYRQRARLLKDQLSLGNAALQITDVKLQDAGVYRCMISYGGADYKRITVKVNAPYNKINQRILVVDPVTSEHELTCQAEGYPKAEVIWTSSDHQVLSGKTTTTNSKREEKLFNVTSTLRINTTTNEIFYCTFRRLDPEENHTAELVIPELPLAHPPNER

Row | Structure (SMILES) | IC50
1 | COc1nc(-c2cccc(-c3cccc(-c4cnc(CN5CCC(N6CCNC6=O)C5)c(OC)n4)c3Cl)c2Cl)cnc1CNC[C@@H]1CCC(=O)N1 (stereo partly shown) [compound 528] | 0.064 nM
2 | COc1nc(-c2cccc(-c3cccc(-c4cnc(CN5C[C@H](O)[C@@H](O)C5)c(OC)n4)c3Cl)c2Cl)cnc1CNC[C@@H]1CCC(=O)N1 [compound 529] | 0.091 nM
3 | COC[C@@H]1C[C@H](OC)CN1Cc1ncc(-c2cccc(-c3cccc(-c4cnc(CNC[C@@H]5CCC(=O)N5)c(OC)n4)c3Cl)c2Cl)nc1OC [compound 530] | 0.212 nM
4 | COc1nc(-c2cccc(-c3cccc(-c4cnc(CN5CCC(C(=O)N(C)C)C5)c(OC)n4)c3Cl)c2Cl)cnc1CN1CCC(C(=O)N(C)C)C1 (stereo not shown) [compound 531] | 0.225 nM
5 | COc1nc(-c2cccc(-c3cccc(-c4cnc(CN5CC[C@@H](C(N)=O)C5)c(OC)n4)c3Cl)c2Cl)cnc1CN1CC[C@@H](C(N)=O)C1 [compound 532] | 0.273 nM
6 | COc1nc(-c2cccc(-c3cccc(-c4cnc(CN5C[C@@H](CO)[C@H](C)C5)c(OC)n4)c3Cl)c2Cl)cnc1CN1C[C@@H](CO)[C@H](C)C1 [compound 533] | 0.096 nM
7 | COc1nc(-c2cccc(-c3cccc(-c4cnc(CN5CCC(C(=O)N(C)C)C5)c(OC)n4)c3Cl)c2Cl)cnc1CNC[C@@H]1CCC(=O)N1 (stereo partly shown) [compound 534] | 0.299 nM
8 | COc1nc(-c2cccc(-c3cccc(-c4cnc(CN5CC[C@@H](C(N)=O)C5)c(OC)n4)c3Cl)c2Cl)cnc1CNC[C@@H]1CCC(=O)N1 [compound 535] | 0.095 nM
9 | COc1nc(-c2cccc(-c3cccc(-c4cnc(CN[C@H]5C[C@@H](OC(F)F)C5)c(OC)n4)c3Cl)c2Cl)cnc1CNC[C@@H]1CCC(=O)N1 [compound 536] | 0.276 nM
10 | COc1nc(-c2cccc(-c3cccc(-c4cnc(CN5CCC6(CCC(=O)N6)C5)c(OC)n4)c3Cl)c2Cl)cnc1CN1CCC2(CCC(=O)N2)C1 (stereo not shown) [compound 537] | 0.064 nM
11 | COc1nc(-c2cccc(-c3cccc(-c4cnc(CNCC[C@@H]5CNC(=O)C5)c(OC)n4)c3Cl)c2Cl)cnc1CNCC[C@@H]1CNC(=O)C1 [compound 538] | 0.199 nM
12 | COc1nc(-c2cccc(-c3cccc(-c4cnc(CNC[C@@H]5CCC(=O)N5)c(OC)n4)c3Cl)c2Cl)cnc1CNCC[C@@H]1CNC(=O)C1 [compound 539] | 0.171 nM
13 | COc1nc(-c2cccc(-c3cccc(-c4cnc(CNCC[C@H]5CNC(=O)C5)c(OC)n4)c3Cl)c2Cl)cnc1CNCC[C@H]1CNC(=O)C1 [compound 540] | 0.072 nM
14 | COc1nc(-c2cccc(-c3cccc(-c4cnc(CNC[C@@H]5CCC(=O)N5)c(OC)n4)c3Cl)c2Cl)cnc1CNCC[C@H]1CNC(=O)C1 [compound 541] | 0.094 nM
15 | COc1nc(-c2cccc(-c3cccc(-c4cnc(CN5CCC[C@@H]6C(=O)NC[C@@H]65)c(OC)n4)c3Cl)c2Cl)cnc1CNC[C@@H]1CCC(=O)N1 [compound 542] | 0.392 nM
16 | COc1nc(-c2cccc(-c3cccc(-c4cnc(CNC[C@@H]5CCC(=O)N5)c(OC)n4)c3Cl)c2Cl)cnc1CNCC1CCN(C)C1=O (stereo partly shown) [compound 543] | 0.2 nM
17 | COc1nc(-c2cccc(-c3cccc(-c4cnc(CNCC56CC(O)(C5)C6)c(OC)n4)c3Cl)c2Cl)cnc1CNCC12CC(O)(C1)C2 [compound 544] | 0.238 nM
18 | COc1nc(-c2cccc(-c3cccc(-c4cnc(CNCC56CC(O)(C5)C6)c(OC)n4)c3Cl)c2Cl)cnc1CNC[C@@H]1CCC(=O)N1 [compound 545] | 0.214 nM
19 | COc1nc(-c2cccc(-c3cccc(-c4cnc(CNCC5CN(S(C)(=O)=O)C5)c(OC)n4)c3Cl)c2Cl)cnc1CNCC1CN(S(C)(=O)=O)C1 [compound 546] | 0.089 nM
20 | COc1nc(-c2cccc(-c3cccc(-c4cnc(CNC[C@@H]5CCC(=O)N5)c(OC)n4)c3Cl)c2Cl)cnc1CNCC1CN(S(C)(=O)=O)C1 [compound 547] | 0.064 nM
21 | COc1nc(-c2cccc(-c3cccc(-c4cnc(CN5CC(O)(C6CC6)C5)c(OC)n4)c3Cl)c2Cl)cnc1CN1CC(O)(C2CC2)C1 [compound 548] | 0.665 nM
22 | COc1nc(-c2cccc(-c3cccc(-c4cnc(CN5CC(O)(C6CC6)C5)c(OC)n4)c3Cl)c2Cl)cnc1CNC[C@@H]1CCC(=O)N1 [compound 549] | 0.194 nM
23 | C#CC1(O)CN(Cc2ncc(-c3cccc(-c4cccc(-c5cnc(CN6CC(O)(C#C)C6)c(OC)n5)c4Cl)c3Cl)nc2OC)C1 [compound 550] | 0.593 nM
24 | C#CC1(O)CN(Cc2ncc(-c3cccc(-c4cccc(-c5cnc(CNC[C@@H]6CCC(=O)N6)c(OC)n5)c4Cl)c3Cl)nc2OC)C1 [compound 551] | 0.464 nM
25 | COc1nc(-c2cccc(-c3cccc(-c4cnc(CN5CC[C@@H](C(=O)O)C5)c(OC)n4)c3Cl)c2Cl)cnc1CNC[C@@H]1CCC(=O)N1 [compound 552] | 0.144 nM
26 | COc1nc(-c2cccc(-c3cccc(-c4cnc(CN[C@@](C)(CO)C(=O)O)c(OC)n4)c3Cl)c2Cl)cnc1CNC[C@@H]1CCC(=O)N1 [compound 553] | 0.118 nM
27 | CNC(=O)NC1CN(Cc2ncc(-c3cccc(-c4cccc(-c5cnc(CN6CC(NC(=O)NC)C6)c(OC)n5)c4Cl)c3Cl)nc2OC)C1 [compound 554] | 0.099 nM
28 | CNC(=O)C1CN(Cc2ncc(-c3cccc(-c4cccc(-c5cnc(CN6CC(C(=O)NC)C6)c(OC)n5)c4Cl)c3Cl)nc2OC)C1 [compound 555] | 0.345 nM

Row | Structure (SMILES) | IC50
29 | COc1nc(-c2cccc(-c3cccc(-c4cnc(CN5CC(NS(C)(=O)=O)C5)c(OC)n4)c3Cl)c2Cl)cnc1CN1CC(NS(C)(=O)=O)C1 [compound 556] | 0.176 nM
30 | CNC(=O)NC1CN(Cc2ncc(-c3cccc(-c4cccc(-c5cnc(CNC[C@@H]6CCC(=O)N6)c(OC)n5)c4Cl)c3Cl)nc2OC)C1 [compound 557] | 0.09 nM
31 | CNC(=O)C1CN(Cc2ncc(-c3cccc(-c4cccc(-c5cnc(CNC[C@@H]6CCC(=O)N6)c(OC)n5)c4Cl)c3Cl)nc2OC)C1 [compound 558] | 0.064 nM
32 | COc1nc(-c2cccc(-c3cccc(-c4cnc(CN5CC(NS(C)(=O)=O)C5)c(OC)n4)c3Cl)c2Cl)cnc1CNC[C@@H]1CCC(=O)N1 [compound 559] | 0.12 nM
33 | COc1nc(-c2cccc(-c3cccc(-c4cnc(CNC5CS(=O)(=O)C5)c(OC)n4)c3Cl)c2Cl)cnc1CNC[C@@H]1CCC(=O)N1 [compound 560] | 0.144 nM
34 | COc1nc(-c2cccc(-c3cccc(-c4cnc(CN[C@H]5C[C@](C)(O)C5)c(OC)n4)c3Cl)c2Cl)cnc1CN[C@H]1C[C@](C)(O)C1 [compound 561] | 0.164 nM
35 | COc1nc(-c2cccc(-c3cccc(-c4cnc(CNC[C@H]5C[C@@](C)(O)C5)c(OC)n4)c3Cl)c2Cl)cnc1CNC[C@H]1C[C@@](C)(O)C1 [compound 562] | 0.151 nM
36 | COc1nc(-c2cccc(-c3cccc(-c4cnc(CNC[C@H]5C[C@](C)(O)C5)c(OC)n4)c3Cl)c2Cl)cnc1CNC[C@H]1C[C@](C)(O)C1 [compound 563] | 0.431 nM
37 | COc1nc(-c2cccc(-c3cccc(-c4cnc(CN[C@H]5C[C@](C)(O)C5)c(OC)n4)c3Cl)c2Cl)cnc1CNC[C@@H]1CCC(=O)N1 [compound 564] | 0.2 nM
38 | COc1nc(-c2cccc(-c3cccc(-c4cnc(CNC[C@H]5C[C@H](OC)C5)c(OC)n4)c3Cl)c2Cl)cnc1CNC[C@@H]1CCC(=O)N1 [compound 565] | 0.43 nM
39 | COc1nc(-c2cccc(-c3cccc(-c4cnc(CNC[C@H]5C[C@@](C)(O)C5)c(OC)n4)c3Cl)c2Cl)cnc1CNC[C@@H]1CCC(=O)N1 [compound 566] | 0.13 nM
40 | COc1nc(-c2cccc(-c3cccc(-c4cnc(CNC[C@H]5C[C@](C)(O)C5)c(OC)n4)c3Cl)c2Cl)cnc1CNC[C@@H]1CCC(=O)N1 [compound 567] | 0.064 nM
41 | COc1nc(-c2cccc(-c3cccc(-c4cnc(CNC[C@H]5CCS(=O)(=O)N5)c(OC)n4)c3Cl)c2Cl)cnc1CNC[C@H]1CCS(=O)(=O)N1 [compound 568] | 0.293 nM
42 | COc1nc(-c2cccc(-c3cccc(-c4cnc(CNC[C@@H]5CCS(=O)(=O)N5)c(OC)n4)c3Cl)c2Cl)cnc1CNC[C@@H]1CCS(=O)(=O)N1 [compound 569] | 0.59 nM
43 | COc1nc(-c2cccc(-c3cccc(-c4cnc(CNCCCN5CCCS5(=O)=O)c(OC)n4)c3Cl)c2Cl)cnc1CNCCCN1CCCS1(=O)=O [compound 570] | 0.414 nM
44 | COc1nc(-c2cccc(-c3cccc(-c4cnc(CN5CC(NS(N)(=O)=O)C5)c(OC)n4)c3Cl)c2Cl)cnc1CN1CC(NS(N)(=O)=O)C1 [compound 571] | 0.064 nM
45 | CNS(=O)(=O)CCNCc1ncc(-c2cccc(-c3cccc(-c4cnc(CNC[C@@H]5CCC(=O)N5)c(OC)n4)c3Cl)c2Cl)nc1OC [compound 572] | 0.064 nM
46 | COc1nc(-c2cccc(-c3cccc(-c4cnc(CNC[C@@H]5CCC(=O)N5)c(OC)n4)c3Cl)c2Cl)cnc1CNCCN1CCCS1(=O)=O [compound 573] | 0.089 nM
47 | COc1nc(-c2cccc(-c3cccc(-c4cnc(CN5CC(S(C)(=O)=O)C5)c(OC)n4)c3Cl)c2Cl)cnc1CNC[C@@H]1CCC(=O)N1 [compound 574] | 0.133 nM
48 | COc1nc(-c2cccc(-c3cccc(-c4cnc(CNCCNS(C)(=O)=O)c(OC)n4)c3Cl)c2Cl)cnc1CNCCNS(C)(=O)=O [compound 575] | 0.064 nM
49 | COc1nc(-c2cccc(-c3cccc(-c4cnc(CNCC5CCS(=O)(=O)N5)c(OC)n4)c3Cl)c2Cl)cnc1CNCC1CCS(=O)(=O)N1 (stereo not shown) [compound 576] | 0.641 nM
50 | COc1nc(-c2cccc(-c3cccc(-c4cnc(CNC[C@@H]5CCC(=O)N5)c(OC)n4)c3Cl)c2Cl)cnc1CNCCCS(N)(=O)=O [compound 577] | 0.064 nM
51 | CCNC(=O)CNCc1ncc(-c2cccc(-c3cccc(-c4cnc(CNC[C@@H]5CCC(=O)N5)c(OC)n4)c3Cl)c2Cl)nc1OC [compound 578] | 0.182 nM
52 | COc1nc(-c2cccc(-c3cccc(-c4cnc(CNC[C@H]5CCOC5)c(OC)n4)c3Cl)c2Cl)cnc1CNC[C@H]1CCOC1 [compound 579] | 0.782 nM
53 | COc1nc(-c2cccc(-c3cccc(-c4cnc(CN(C)C[C@@H]5CCC(=O)N5)c(OC)n4)c3Cl)c2Cl)cnc1CNC[C@@H]1CCC(=O)N1 [compound 580] | 0.359 nM
54 | COc1nc(-c2cccc(-c3cccc(-c4cnc(CNC[C@@H]5CCC(=O)N5)c(OC)n4)c3Cl)c2Cl)cnc1CNCC(=O)NC(C)C [compound 581] | 0.201 nM
55 | COc1nc(-c2cccc(-c3cccc(-c4cnc(C5=NCCN5)c(OC)n4)c3Cl)c2Cl)ccc1CN [compound 582] | 0.19 nM
